Tests used:
[1] = Terminal half life in human at 20 mg administered under fasting condition; format: ADME, organism-based; details: in vivo, read-out: beta t1/2 (converted)
[2] = Terminal half life in human at 20 mg administered under fasting condition presence of 300 mg of ritonavir; format: ADME, organism-based; details: in vivo, read-out: beta t1/2 (converted)
[3] = AUC (0 to 24 hrs) in human at 20 mg administered under fasting condition; format: ADME, organism-based; set-up: time < 24 hr, dose 20 mg; details: plasma
[4] = AUC (0 to t) in human at 20 mg administered under fasting condition; format: ADME, organism-based; details: plasma
[5] = AUC (0 to infinity) in human at 20 mg administered under fasting condition; format: ADME, organism-based; set-up: dose 20 mg, time infinity; details: plasma
[6] = Cmax in human at 20 mg administered under fasting condition; details: in vivo
[7] = Clearance in human at 20 mg administered under fasting condition; format: ADME, organism-based; details: in vivo
[8] = Tmax in human at 20 mg administered under fasting condition; format: ADME, organism-based; details: in vivo
[9] = Half life in human at 20 mg administered under fasting condition; format: ADME, organism-based; details: in vivo
[10] = AUC (0 to 24 hrs) in human at 20 mg administered under fasting condition in presence of 300 mg of ritonavir; format: ADME, organism-based; set-up: time < 24 hr, dose 20 mg; details: plasma
[11] = AUC (0 to t) in human at 20 mg administered under fasting condition in presence of 300 mg of ritonavir; format: ADME, organism-based; details: plasma
[12] = AUC (0 to infinity) in human at 20 mg administered under fasting condition in presence of 300 mg of ritonavir; format: ADME, organism-based; set-up: dose 20 mg, time infinity; details: plasma
[13] = Apparent oral clearance in human at 20 mg administered under fasting condition; format: ADME, organism-based; details: in vivo
[14] = Apparent oral clearance in human at 20 mg administered under fasting condition presence of 300 mg of ritonavir; format: ADME, organism-based; details: in vivo
Homo sapiens [15] = experiment: Central volume of distribution with respect to the bioavailability in human at 20 mg administered under fasting condition presence of 300 mg of ritonavir; format: ADME, organism-based; details: in vivo
Homo sapiens [16] = experiment: Distributional clearance with respect to the bioavailability in human at 20 mg administered under fasting condition; format: ADME, organism-based; details: in vivo
Homo sapiens [17] = experiment: Distributional clearance with respect to the bioavailability in human at 20 mg administered under fasting condition presence of 300 mg of ritonavir; format: ADME, organism-based; details: in vivo
Homo sapiens [18] = experiment: Peripheral volume of distribution with respect to the bioavailability in human at 20 mg administered under fasting condition; format: ADME, organism-based; details: in vivo
Homo sapiens [19] = experiment: Peripheral volume of distribution with respect to the bioavailability in human at 20 mg administered under fasting condition presence of 300 mg of ritonavir; format: ADME, organism-based; details: in vivo
[20] = Volume of distribution at steady state with respect to the bioavailability in human at 20 mg administered under fasting condition; format: ADME, organism-based; details: in vivo, read-out: Vss/F
[21] = Volume of distribution at steady state with respect to the bioavailability in human at 20 mg administered under fasting condition presence of 300 mg of ritonavir; format: ADME, organism-based; details: in vivo, read-out: Vss/F
[22] = Clearance in human at 20 mg administered under fasting condition in presence of 300 mg of ritonavir; format: ADME, organism-based; details: in vivo
[23] = Tmax in human at 20 mg administered under fasting condition in presence of 300 mg of ritonavir; format: ADME, organism-based; details: in vivo
[24] = Half life in human at 20 mg administered under fasting condition in presence of 300 mg of ritonavir; format: ADME, organism-based; details: in vivo
[25] = Central volume of distribution with respect to the bioavailability in human at 20 mg administered under fasting condition; format: ADME, organism-based; details: in vivo, read-out: Vc/F
Homo sapiens [26] = experiment: Time prior to start absorption at first absorption site in human at 20 mg administered under fasting condition; format: ADME, organism-based; details: in vivo
Homo sapiens [27] = experiment: Time prior to start absorption at first absorption site in human at 20 mg administered under fasting condition presence of 300 mg of ritonavir; format: ADME, organism-based; details: in vivo
Homo sapiens [28] = experiment: Time prior to start absorption at second absorption site in human at 20 mg administered under fasting condition; format: ADME, organism-based; details: in vivo
Homo sapiens [29] = experiment: Time prior to start absorption at second absorption site in human at 20 mg administered under fasting condition presence of 300 mg of ritonavir; format: ADME, organism-based; details: in vivo
Homo sapiens [30] = experiment: Absorption rate constant at first absorption site in human at 20 mg administered under fasting condition; format: ADME, organism-based; details: in vivo
Homo sapiens [31] = experiment: Absorption rate constant at first absorption site in human at 20 mg administered under fasting condition presence of 300 mg of ritonavir; format: ADME, organism-based; details: in vivo
Homo sapiens [32] = experiment: Absorption rate constant at second absorption site in human at 20 mg administered under fasting condition; format: ADME, organism-based; details: in vivo
Homo sapiens [33] = experiment: Absorption rate constant at second absorption site in human at 20 mg administered under fasting condition presence of 300 mg of ritonavir; format: ADME, organism-based; details: in vivo
clinical = details: human, in vivo
Description: Cmax in human at 20 mg administered under fasting condition in presence of 300 mg of ritonavir

half-life [1]: 58.6 h | half-life [2]: 60.2 h | AUC(0-t) at 24 h [3]: 732 ng·h/mL | AUC(0-t) [4]: 1030 ng·h/mL | AUC(0-inf) [5]: 1240 ng·h/mL | Cmax [6]: 136 ng/mL | clearance [7]: 293 mL/min | Tmax [8]: 3.78 h | half-life [9]: 59.1 h | AUC(0-t) at 24 h [10]: 568 ng·h/mL | AUC(0-t) [11]: 790 ng·h/mL | AUC(0-inf) [12]: 979 ng·h/mL | CL/F [13]: 297 mL/min | CL/F [14]: 487 mL/min | Vc/F (Homo sapiens [15]): 24.8 L | CLd/F (Homo sapiens [16]): 16.3 L/h | CLd/F (Homo sapiens [17]): 19.3 L/h | Vp/F (Homo sapiens [18]): 703 L | Vp/F (Homo sapiens [19]): 897 L | Vd/F [20]: 729 L | Vd/F [21]: 921 L | clearance [22]: 467 mL/min | Tmax [23]: 5.12 h | half-life [24]: 54.2 h | Vd/F [25]: 26.1 L | Time (Homo sapiens [26]): 1.6 h | Time (Homo sapiens [27]): 2.96 h | Time (Homo sapiens [28]): 2.3 h | Time (Homo sapiens [29]): 3.54 h | ka (Homo sapiens [30]): 0.183 h⁻¹ | ka (Homo sapiens [31]): 0.127 h⁻¹ | ka (Homo sapiens [32]): 0.459 h⁻¹ | ka (Homo sapiens [33]): 0.483 h⁻¹ | Cmax (clinical): 102 ng/mL
SMILES: Nc1nc(=O)n([C@@H]2C=C[C@H](CO)O2)cc1F [ELVUCITABINE]

— ChEMBL document CHEMBL1629605, “Effect of a single dose of ritonavir on the pharmacokinetic behavior of elvucitabine, a nucleoside reverse transcriptase inhibitor, administered in healthy volunteers” (Antimicrob Agents Chemother, 2009)
